IC50 data for 23 compounds are collected here from patent US8088761B2, “Enzyme inhibitors” (Cancer Research Technology Limited, priority 2005, dated 2012).

The structures appear in SMILES notation. Some results are limits rather than exact numbers.

The test system of assay [1] is HCT116 cells. Kind of assay: Cell viability assay (MTT) in HCT116 cell line. Type of assay: cell-based. The conditions noted are these: Homo sapiens, HCT-116, 72 hrs, IC50 range, read-out: HCT116 cell growth inhibition. The method, then:
Cell Viability Assay: Determination of IC50 of Aurora Inhibitors in HCT116 Cell Line Using MTT Assay. The effects of compounds of the Examples on cellular proliferation were determined using the MTT assay according to manufacturer's instructions (Sigma). Briefly, the human colon tumour cells HCT116, were seeded in triplicate into 96-well plates at 2500 cells/well 24 hours before treatment with a range of concentrations of Aurora inhibitors (0-50 μM). After 72 hrs, 15 μl/well of 0.5% 3-(4,5-dimethylthiazol-2-yl)-2,5-diphenyltetrazolium bromide (MTT) was added to the cells for 4 hrs at 37° C., the dye-stained viable cells were extracted by adding 150 μl/well of dimethyl sulphoxide (DMSO). […] The IC50 was calculated using the Prism software.

The target in assay [2] is T1, Aurora-A (Homo sapiens, UniProt O14965).
T1 sequence (O14965 1-403): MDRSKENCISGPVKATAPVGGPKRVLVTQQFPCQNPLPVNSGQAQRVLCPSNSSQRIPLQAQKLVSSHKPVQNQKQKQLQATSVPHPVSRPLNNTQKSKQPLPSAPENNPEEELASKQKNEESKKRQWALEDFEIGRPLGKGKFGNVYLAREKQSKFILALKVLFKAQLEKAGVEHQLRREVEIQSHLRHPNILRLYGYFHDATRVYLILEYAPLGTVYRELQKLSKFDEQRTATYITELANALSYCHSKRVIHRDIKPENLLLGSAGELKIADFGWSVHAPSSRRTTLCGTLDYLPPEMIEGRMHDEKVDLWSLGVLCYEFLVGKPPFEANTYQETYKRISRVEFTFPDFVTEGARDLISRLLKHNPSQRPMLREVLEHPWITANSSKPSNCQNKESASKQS
In words: Flashplate Aurora A enzyme inhibition assay. The assay is classed as biochemical. The conditions noted are these: Flashplate assay; IC50 range; read-out: Aurora-A inhibition. The method, then:
Flashplate® Assay for Identification and Evaluation of Aurora-A Inhibitors
On this assay 384-well Basic Flashplate® (SMP400E, PerkinElmer) as solid assay platform was used. The plates were coated overnight at 4° C. with […] at 100 μg/ml in PBS buffer and used after being washed twice with PBS. 5 μl of compound in 2% DMSO was added to each well followed by 15 μl master mix of kinase buffer (50 mM Tris pH 7.5, 10 mM NaCl, 2.5 mM MgCl2, 1 mM […], 20 μM ATP, and 0.025 μCi/μl ^33P-ATP). Finally, 250 ng per well of Aurora-A enzyme was added. The plate was shaken for approximately 2 min on a flat-bed plate shaker (Wellmix, Denley, UK) and incubated for 2 hours at room temperature. The reaction was stopped by washing the plate twice on a 16-pin wash (ELX50 BioTek Instruments Ltd., Northstar, Bedford, UK) with 10 mM sodium pyrophosphate. The plate was then read on a TopCount-NX™ (PerkinElmer Life Sciences UK Ltd., Hounslow, UK).

With `COc1ccc(-c2nc3c(N4CCN(Cc5ccc(Cl)cc5)CC4)c(Cl)cnc3[nH]2)cc1` [Example 37, 6-Chloro-7-(4-(4-chlorobenzyl)piperazin-1-yl)-2-(4-methoxyphenyl)-3H-imidazo[4,5-b]pyridine], the results for the IC50 in assay [1] and in assay [2] were 2000 to 50000 nM and less than 500 nM, respectively.

As to `CN(C)c1ccc(-c2nc3c(N4CCN(C(=O)COc5ccccc5)CC4)c(Br)cnc3[nH]2)cc1` [Example 38, 1-(4-(6-Bromo-2-(4-(dimethylamino)phenyl)-3H-imidazo[4,5-b]pyridin-7-yl)piperazin-1-yl)-2-phenoxyethanone], the IC50 in assay [1] is 500 to 2000 nM; in assay [2] it was less than 500 nM.

Take `CN(C)c1ccc(-c2nc3c(N4CCN(C(=O)Nc5nccs5)CC4)c(Br)cnc3[nH]2)cc1` [Example 42, 4-(6-Bromo-2-(4-(dimethylamino)phenyl)-3H-imidazo[4,5-b]pyridin-7-yl)-N-(thiazol-2-yl)piperazine-1-carboxamide]: the IC50 in assay [1] was 2000 to 50000 nM; in assay [2] it was less than 500 nM.

With `O=C(CN1CCN(c2c(Br)cnc3[nH]c(-c4cccnc4)nc23)CC1)Nc1nccs1` [Example 44, 2-(4-(6-Bromo-2-(pyridin-3-yl)-3H-imidazo[4,5-b]pyridin-7-yl)piperazin-1-yl)-N-(thiazol-2-yl)acetamide], the IC50 is 500 to 2000 nM in assay [1] and less than 500 nM in assay [2].

Turning to `NC(=O)C1CC1c1nc2c(N3CCN(CC(=O)Nc4nccs4)CC3)c(Br)cnc2[nH]1` (stereo not shown) [Example 46, 2-(6-Bromo-7-(4-(2-oxo-2-(thiazol-2-ylamino)ethyl)piperazin-1-yl)-3H-imidazo[4,5-b]pyridin-2-yl)cyclopropanecarboxamide], the IC50 in assay [1] was in the range of 2000 to 50000 nM; in assay [2] it was 500 to 2000 nM.

For the compound `CN(C)c1ccc(-c2nc3c(N4CCN(S(C)(=O)=O)CC4)c(Br)cnc3[nH]2)cc1` [Example 49, 4-(6-Bromo-7-(4-(methylsulfonyl)piperazin-1-yl)-3H-imidazo[4,5-b]pyridin-2-yl)-N,N-dimethylaniline], the IC50 in assay [1] was 500 to 2000 nM; in assay [2] it was less than 500 nM.

Consider `CC(c1ccccn1)N1CCN(c2c(Br)cnc3[nH]c(-c4ccc(N(C)C)cc4)nc23)CC1` (stereo not shown) [Example 50, 4-(6-Bromo-7-(4-(1-(pyridin-2-yl)ethyl)piperazin-1-yl)-3H-imidazo[4,5-b]pyridin-2-yl)-N,N-dimethylaniline], for which the IC50 in assay [1] is 500 to 2000 nM; in assay [2] it was less than 500 nM.

Take `CC(c1cccnc1)N1CCN(c2c(Br)cnc3[nH]c(-c4ccc(N(C)C)cc4)nc23)CC1` (stereo not shown) [Example 52, 4-(6-Bromo-7-(4-(1-(pyridin-3-yl)ethyl)piperazin-1-yl)-3H-imidazo[4,5-b]pyridin-2-yl)-N,N-dimethylaniline]: the IC50 in assay [1] was 500 to 2000 nM; in assay [2], less than 500 nM.

With `CC(c1ccncc1)N1CCN(c2c(Br)cnc3[nH]c(-c4ccc(N(C)C)cc4)nc23)CC1` (stereo not shown) [Example 53, 4-(6-Bromo-7-(4-(1-(pyridin-4-yl)ethyl)piperazin-1-yl)-3H-imidazo[4,5-b]pyridin-2-yl)-N,N-dimethylaniline], the results for the IC50 in assay [1] and in assay [2] were 500 to 2000 nM and less than 500 nM, respectively.

Consider `COc1ccc(-c2nc3c(N4CCN(C(C)c5ccncc5)CC4)c(Br)cnc3[nH]2)cc1` (stereo not shown) [Example 54, 6-Bromo-2-(4-methoxyphenyl)-7-(4-(1-(pyridin-4-yl)ethyl)piperazin-1-yl)-3H-imidazo[4,5-b]pyridine], for which the IC50 in assay [1] and in assay [2] was less than 500 nM throughout.

As for `Cn1cc(-c2nc3c(N4CCN(Cc5cccnc5)CC4)c(Br)cnc3[nH]2)cn1` [Example 56, 6-Bromo-2-(1-methyl-1H-pyrazol-4-yl)-7-(4-(pyridin-3-ylmethyl)piperazin-1-yl)-3H-imidazo[4,5-b]pyridine], the values for the IC50 in assay [1] and in assay [2] were 2000 to 50000 nM and less than 500 nM, respectively.

`Cc1nn(C)c(C)c1-c1nc2c(N3CCN(Cc4cccnc4)CC3)c(Br)cnc2[nH]1` [Example 57, 6-Bromo-7-(4-(pyridin-3-ylmethyl)piperazin-1-yl)-2-(1,3,5-trimethyl-1H-pyrazol-4-yl)-3H-imidazo[4,5-b]pyridine]: the values for the IC50 in assay [1] and in assay [2] were 2000 to 50000 nM and less than 500 nM, respectively.

Regarding `CN1CCN(Cc2cccc(-c3nc4c(N5CCN(Cc6cccnc6)CC5)c(Br)cnc4[nH]3)c2)CC1` [Example 58, 6-Bromo-2-(3-((4-methylpiperazin-1-yl)methyl)phenyl)-7-(4-(pyridin-3-ylmethyl)piperazin-1-yl)-3H-imidazo[4,5-b]pyridine], the IC50 in assay [1] was 500 to 2000 nM; in assay [2] it was less than 500 nM.

Take `CC(C)(C)OC(=O)NCc1ccc(-c2nc3c(N4CCN(Cc5cccnc5)CC4)c(Br)cnc3[nH]2)cc1` [Example 59, tert-Butyl 4-(6-bromo-7-(4-(pyridin-3-ylmethyl)piperazin-1-yl)-3H-imidazo[4,5-b]pyridin-2-yl)benzylcarbamate]: the figures for the IC50 in assay [1] and in assay [2] were 2000 to 50000 nM and less than 500 nM, respectively.

For `NCc1ccc(-c2nc3c(N4CCN(Cc5cccnc5)CC4)c(Br)cnc3[nH]2)cc1` [Example 60, (4-(6-Bromo-7-(4-(pyridin-3-ylmethyl)piperazin-1-yl)-3H-imidazo[4,5-b]pyridin-2-yl)phenyl)methanamine], the IC50 in assay [1] was 500 to 2000 nM; in assay [2] it was less than 500 nM.

Regarding `CN(C)Cc1ccc(-c2nc3c(N4CCN(Cc5cccnc5)CC4)c(Br)cnc3[nH]2)cc1` [Example 61, 1-(4-(6-Bromo-7-(4-(pyridin-3-ylmethyl)piperazin-1-yl)-3H-imidazo[4,5-b]pyridin-2-yl)phenyl)-N,N-dimethylmethanamine], the values for the IC50 in assay [1] and in assay [2] were 500 to 2000 nM and less than 500 nM, respectively.

As for `CN(C)c1ccc(-c2nc3c(N4CCN(CC(=O)Nc5nccs5)CC4)c(C#N)cnc3[nH]2)cc1` [Example 62, 2-(4-(6-Cyano-2-(4-(dimethylamino)phenyl)-3H-imidazo[4,5-b]pyridin-7-yl)piperazin-1-yl)-N-(thiazol-2-yl)acetamide], the IC50 was 500 to 2000 nM in assay [1] and less than 500 nM in assay [2].

In the case of `Cc1cc(NC(=O)CN2CCN(c3c(Cl)cnc4[nH]c(-c5ccc(N(C)C)cc5)nc34)CC2)on1` [Example 63, 2-(4-(6-Chloro-2-(4-(dimethylamino)phenyl)-3H-imidazo[4,5-b]pyridin-7-yl)piperazin-1-yl)-N-(3-methylisoxazol-5-yl)acetamide], the IC50 in assay [1] is 500 to 2000 nM; in assay [2], less than 500 nM.

As for `COc1ccc(-c2nc3c(N4CCN(CC(=O)Nc5cc(C)no5)CC4)c(Cl)cnc3[nH]2)cc1` [Example 64, 2-(4-(6-Chloro-2-(4-methoxyphenyl)-3H-imidazo[4,5-b]pyridin-7-yl)piperazin-1-yl)-N-(3-methylisoxazol-5-yl)acetamide], the IC50 is 500 to 2000 nM in assay [1] and less than 500 nM in assay [2].

Take `Brc1cnc2[nH]c(-c3cccc(CN4CCOCC4)c3)nc2c1N1CCN(Cc2cccnc2)CC1` [Example 66, 6-Bromo-2-(3-morpholin-4-ylmethyl-phenyl)-7-(4-pyridin-3-ylmethyl-piperazin-1-yl)-3H-imidazo[4,5-b]pyridine]: the IC50 in assay [1] and in assay [2] was less than 500 nM each time.

Take `COc1ccc(-c2nc3c(N4CCN(Cc5ccncc5)CC4)c(Br)cnc3[nH]2)cc1` [Example 67, 6-Bromo-2-(4-methoxy-phenyl)-7-(4-pyridin-4-ylmethyl-piperazin-1-yl)-3H-imidazo[4,5-b]pyridine]: the IC50 in assay [1] and in assay [2] was less than 500 nM throughout.

`Clc1ccc(CN2CCN(c3c(Br)cnc4[nH]c(-c5ccc(CN6CCOCC6)cc5)nc34)CC2)cc1` [Example 69, 6-Bromo-7-[4-(4-chloro-benzyl)-piperazin-1-yl]-2-(4-morpholin-4-ylmethyl-phenyl)-3H-imidazo[4,5-b]pyridine]: the IC50 in assay [1] was 500 to 2000 nM; in assay [2], less than 500 nM.

Consider `CC(c1ccccc1)N1CCN(c2c(Br)cnc3[nH]c(-c4ccc(CN5CCOCC5)cc4)nc23)CC1` (stereo not shown) [Example 70, 6-Bromo-2-(4-morpholin-4-ylmethyl-phenyl)-7-[4-(1-phenyl-ethyl)-piperazin-1-yl]-3H-imidazo[4,5-b]pyridine], for which the results for the IC50 in assay [1] and in assay [2] were 500 to 2000 nM and less than 500 nM, respectively.
